Patent publication US20090209528A1, “SUBSTITUTED TETRAHYDROISOQUINOLINE COMPOUND, THEIR PREPARATION AND USE IN MEDICAMENTS” (LABORATORIOS DEL DR. ESTEVE S.A., priority 2006, published 2009)
Structures can show the parent of a compound that is named as a salt.

Molecular target: T1, 5HT6-human recombinant receptor (Homo sapiens, UniProt P50406)
T1 construct: purchased Receptor Biology; host or cells: HEK-293 cell membranes
Test: Binding to serotonin receptor 5-HT6 ([3H]-LSD displacement)
Settings: radioligand [3H]-LSD 2.7 nM; for inhibition at 0.01 µM / inhibition at 0.1 µM: 1 h; for Ki: membranes of HEK-293 cells expressing the receptor, 60 min, 37° C.
Experimental: Cell membranes of HEK-293 cells expressing the 5HT6-human recombinant receptor were supplied by Receptor Biology. In said membranes the receptor concentration is 2.18 pmol/mg protein and the protein concentration is 9.17 mg/ml. The experimental protocol follows the method of B. L. Roth et al. [B. L. Roth, S. C. Craigo, M. S. Choudhary, A. Uluer, F. J. Monsma, Y. Shen, H. Y. Meltzer, D. R. Sibley: Binding of Typical and Atypical Antipsychotic Agents to 5-Hydroxytryptamine-6 and Hydroxytryptamine-7 Receptors. The Journal of Pharmacology and Experimental Therapeutics, 1994, 268, 1403] with the following slight changes. The respective part of the literature description is hereby incorporated by reference and forms part of the disclosure.
The commercial membrane is diluted (1:40 dilution) with the binding buffer: 50 mM Tris-HCl, 10 mM MgCl2, 0.5 mM EDTA (pH 7.4). The radioligand used is [^3H]-LSD at a concentration of 2.7 nM with a final volume of 200 μl. Incubation is initiated by adding 100 μl of membrane suspension, (≈22.9 μg membrane protein), and is prolonged for 60 minutes at a temperature of 37° C. The incubation is ended by fast filtration in a Brandel Cell Harvester through fiber glass filters made by Schleicher & Schuell GF 3362 pretreated with a solution of polyethylenimine at 0.5%. The filters are washed three times with three milliliters of buffer Tris-HCl 50 mM pH 7.4. The filters are transferred to flasks and 5 ml of Ecoscint H liquid scintillation cocktail are added to each flask. The flasks are allowed to reach equilibrium for several hours before counting with a Wallac Winspectral 1414 scintillation counter. Non-specific binding is determined in the presence of 100 μM of serotonin. Tests were made in triplicate. The inhibition constants (Ki, nM) were calculated by non-linear regression analysis using the program EBDA/LIGAND described in Munson and Rodbard, Analytical Biochemistry, 1980, 107, 220, the respective part of which is hereby incorporated by reference and forms part of the disclosure.

T1 sequence (P50406 whole entry): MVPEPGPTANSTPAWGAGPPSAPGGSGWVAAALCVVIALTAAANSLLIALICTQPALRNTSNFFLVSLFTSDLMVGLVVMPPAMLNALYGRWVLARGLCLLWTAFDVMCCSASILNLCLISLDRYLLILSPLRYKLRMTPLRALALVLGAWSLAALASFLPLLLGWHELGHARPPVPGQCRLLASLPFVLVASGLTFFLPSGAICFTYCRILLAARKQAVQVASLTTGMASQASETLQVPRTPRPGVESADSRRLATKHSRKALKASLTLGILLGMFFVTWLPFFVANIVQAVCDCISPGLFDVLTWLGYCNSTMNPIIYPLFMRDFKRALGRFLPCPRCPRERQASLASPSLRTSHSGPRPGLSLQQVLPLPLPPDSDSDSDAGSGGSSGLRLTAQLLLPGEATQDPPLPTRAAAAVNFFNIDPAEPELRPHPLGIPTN

Compound | inhibition at 0.01 µM (compound at 10 nM) | inhibition at 0.1 µM (compound at 100 nM) | Ki | Binding % [10 nM] (compound at 10 nM) | Binding % [100 nM] (compound at 100 nM)
Cc1ccc(S(=O)(=O)Nc2ccc3c(c2)CN(C)CC3)c2ccccc12 [Example 56, 4-Methyl-naphthalene-1-sulfonic acid (2-methyl-1,2,3,4-tetrahydro-isoqui-nolin-7-yl)-amide hydrochloride] | 86.8% | 92.8% | 10.3 nM |  | 
Cc1c(S(=O)(=O)Nc2ccc3c(c2)CNCC3)sc2ccc(Cl)cc12 [Example 60, 5-Chloro-3-methyl-benzo[b]thiophene-2-sulfonic acid (1,2,3,4-tetrahydro-isoquinolin-7-yl)-amide hydrochloride] | 44.8% | 65.1% | 49.4 ± 8.2 nM |  | 
O=S(=O)(Nc1ccc2c(c1)CNCC2)c1cccc2ccccc12 [Example 61, Naphthalene-1-sulfonic acid (1,2,3,4-tetrahydro-isoquinolin-7-yl)-amide hydrochloride] | 78.6% | 85.5% | 3.2 ± 0.4 nM |  | 
O=S(=O)(Nc1ccc2c(c1)CNCC2)c1ccccc1-c1ccccc1 [Example 62, Biphenyl-2-sulfonic acid (1,2,3,4-tetrahydro-isoquinolin-7-yl)-amide hydrochloride] | 89% | 86.4% | 2.4 ± 0.5 nM |  | 
Cc1c(S(=O)(=O)Nc2ccc3c(c2)CNCC3)sc2ccc(F)cc12 [Example 64, 5-Fluoro-3-methyl-benzo[b]thiophene-2-sulfonic acid (1,2,3,4-tetrahydro-isoquinolin-7-yl)-amide hydrochloride] | 41.9% | 66.9% | 55.8 ± 24.1 nM |  | 
O=S(=O)(Nc1ccc2c(c1)CNCC2)c1cccc2nonc12 [Example 72, Benzo[1,2,5]oxadiazole-4-sulfonic acid (1,2,3,4-tetrahydro-isoquinolin-7-yl)-amide hydrochloride] | 45.5% | 64.7% | 54.6 nM |  | 
Cc1ccc2nsnc2c1S(=O)(=O)Nc1ccc2c(c1)CNCC2 [Example 76, 5-Methylbenzo[1,2,5] thiadiazole-4-sulfonic acid (1,2,3,4-tetrahydro-isoquinolin-7-yl)-amide hydrochloride] | 73.1% | 83.2% | 19.2 ± 2.4 nM |  | 
O=S(=O)(Nc1ccc2c(c1)CNCC2)c1csc2ccccc12 [Example 78, Benzo[b]thiophene-3-sulfonic acid (1,2,3,4-tetrahydro-isoquinolin-7-yl)-amide hydrochloride] | 77.5% | 85.8% | 2.1 nM |  | 
O=S(=O)(Nc1ccc2c(c1)CNCC2)c1ccc(F)c2ccccc12 [Example 80, 4-Fluoro-naphthalene-1-sulfonic acid (1,2,3,4-tetrahydro-isoquinolin-7-yl)-amide hydrochloride] | 70% | 83.6% | 6.5 ± 0.5 nM |  | 
O=S(=O)(Nc1ccc2c(c1)CNCC2)c1ccc(Cl)c2ccccc12 [Example 81, 4-Chloro-naphthalene-1-sulfonic acid (1,2,3,4-tetrahydro-isoquinolin-7-yl)-amide hydrochloride] | 70.3% | 84.1% | 9.4 ± 3.7 nM |  | 
CCc1ccc(OC)c(S(=O)(=O)Nc2ccc3c(c2)CNCC3)c1 [Example 86, 5-Ethyl-2-methoxy-N-(1,2,3,4-tetrahydro-isoquinolin-7-yl)-benzenesulfonamide hydrochloride] | 78.9% | 88.4% | 6.1 ± 0.7 nM |  | 
O=S(=O)(Nc1ccc2c(c1)CCNC2)c1ccc2ccccc2c1 [Example 153, Naphthalene-2-sulfonic acid (1,2,3,4-tetrahydro-isoquinolin-6-yl)-amide] |  |  | 8.7 ± 0.4 nM | 52.9% | 88.2%
O=S(=O)(Nc1ccc2c(c1)CNCC2)c1cccc2c(Cl)cccc12 [Example 154, 5-Chloro-naphthalene-1-sulfonic acid (1,2,3,4-tetrahydro-isoquinolin-7-yl)-amide Hydrochloride] | 65.7% | 85.1% | 39.7 ± 7.4 nM |  | 
